Source: publication PMC9095466 (Nature, 2022)
Several values for one entry are separate records, joined by “and”; a condition that tells them apart may be missing. Equal entries are not always repeated. Where two headings read alike, the source gives them in different places.

Tests used:
[1] = tested on: SARS-CoV-2 (USA-WA1/2020, lineage A); design: species or system K18-hACE2 mice; settings: mouse, in vivo
mouse TMPRSS2 = mouse TMPRSS2 (Mus musculus, UniProt Q9JIQ8); experiment: cell-based
[2] = tested on: SARS-CoV-2 B.1.617.2 (Delta); experiment: microbe, parasite or virus in culture; type: cell-based; settings: India

mouse TMPRSS2, sequence (Q9JIQ8 whole entry): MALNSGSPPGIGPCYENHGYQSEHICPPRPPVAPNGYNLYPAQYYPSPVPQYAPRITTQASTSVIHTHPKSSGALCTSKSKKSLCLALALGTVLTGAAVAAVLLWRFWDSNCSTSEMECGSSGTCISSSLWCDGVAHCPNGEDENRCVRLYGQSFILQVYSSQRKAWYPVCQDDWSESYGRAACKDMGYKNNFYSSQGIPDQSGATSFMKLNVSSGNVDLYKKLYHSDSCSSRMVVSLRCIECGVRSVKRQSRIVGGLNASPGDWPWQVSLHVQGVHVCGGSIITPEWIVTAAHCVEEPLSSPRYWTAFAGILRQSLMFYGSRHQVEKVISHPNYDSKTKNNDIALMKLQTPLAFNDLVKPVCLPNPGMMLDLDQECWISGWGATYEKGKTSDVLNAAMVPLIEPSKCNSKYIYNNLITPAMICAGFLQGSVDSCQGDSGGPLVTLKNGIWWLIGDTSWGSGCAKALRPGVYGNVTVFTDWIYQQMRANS

CS(=O)(=O)NC(CCC(N)=O)C(=O)NC(Cc1ccccc1)C(=O)NC(CCCNC(=N)N)C(=O)c1nc2ccccc2s1 (stereo not shown) [Compound N-0385, Ms-QFR-kbt]
average weight loss at 6 dpi [1]: 3%
survival [1]: 100%
survival to the end-point (14 dpi) [1]: 70%
weight gain at 6 dpi [1]: 1%
weight gain at time of death or the study end-point [1]: 2%
weight loss at the study end-point [1]: 3%
IC50 (mouse TMPRSS2; Vero E6 cells transfected with mTMPRSS2, 24 h, mean ± SD, n = 3, read-out: mouse TMPRSS2 (mTmprss2) activity IC50): 12.3 ± 1.9 nM
IC50 (mouse TMPRSS2; mTMPRSS2, mean of independent experiments, Figure S1C, read-out: IC50 Mean): 12.3 nM
IC50 (mouse TMPRSS2; mTMPRSS2, single experiments N1-N3, Figure S1C, read-out: IC50 determined from independant experiments): 12.2 nM and 14.3 nM and 10.4 nM
infection, dose response Figure 3c (nucleocapsid) ([2]; log [C] (nM) 0.20412): 60.9172 and 87.9076 and 85.6813 and 84.0612
infection, dose response Figure 3d (dsRNA) ([2]; log [C] (nM) 0.20412): 68.4547 and 86.2131 and 100
infection, dose response Figure 3d (dsRNA) ([2]; log [C] (nM) 3): 5.293 and 4.1962
infection, dose response Figure 3c (nucleocapsid) ([2]; log [C] (nM) -0.49485): 94.4352 and 99.5627 and 82.7139
infection, dose response Figure 3d (dsRNA) ([2]; log [C] (nM) -0.49485): 78.2794 and 100
infection, dose response Figure 3c (nucleocapsid) ([2]; log [C] (nM) -1.19382): 98.0243 and 101.283 and 99.1734 and 90.3686
infection, dose response Figure 3d (dsRNA) ([2]; log [C] (nM) -1.19382): 100 and 84.9713
